Source: PMC6934184, “Selective DNA-PKcs inhibition extends the therapeutic index of localized radiotherapy and chemotherapy” (The Journal of Clinical Investigation, 2019)

Molecular target: T1, ACVR1B (ALK4) (Homo sapiens, UniProt P36896)
T1 construct: purchased Thermo Fisher Scientific (Life Technologies) SelectScreen
Assay: SelectScreen Z'LYTE
Type: biochemical
Procedure, shortened: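 Compound tested in SelectScreen activity assays, Z'LYTE for CSF1R, CDK1/cyclin B and MAP2K6 and Adapta for CAMK1. ATP for CAMK1 was listed as 10, and Km app was used for CSF1R. Results are expressed in percent.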

T1 sequence (P36896 24-505): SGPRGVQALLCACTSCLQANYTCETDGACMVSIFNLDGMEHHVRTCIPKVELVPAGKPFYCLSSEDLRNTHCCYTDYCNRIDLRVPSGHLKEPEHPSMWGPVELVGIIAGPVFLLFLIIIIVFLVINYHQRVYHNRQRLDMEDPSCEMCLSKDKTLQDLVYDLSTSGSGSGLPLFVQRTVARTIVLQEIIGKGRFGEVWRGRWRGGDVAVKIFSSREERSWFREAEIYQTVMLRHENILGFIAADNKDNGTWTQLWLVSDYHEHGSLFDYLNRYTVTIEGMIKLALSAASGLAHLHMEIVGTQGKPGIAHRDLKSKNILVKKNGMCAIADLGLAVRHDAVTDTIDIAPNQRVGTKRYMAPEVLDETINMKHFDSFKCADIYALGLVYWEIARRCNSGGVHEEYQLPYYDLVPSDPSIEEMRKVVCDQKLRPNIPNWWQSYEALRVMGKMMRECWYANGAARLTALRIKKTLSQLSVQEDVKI

## CN(C(=O)CN1CCOCC1)c1ccc2sc3c(-c4cccc5c(=O)cc(N6CC7CCC(C6)O7)oc45)cccc3c2c1 [NU5455]
  inhibition at 1 µM: 2%
